Measurements as given in patent publication US20110262508A1, “ANTIMICROBIAL COMPOSITIONS, FORMULATIONS AND USES THEREOF” (priority 2007, published 2011).
Where two headings read alike, the source gives them in different places. Square brackets hold non-standard residues; d marks the D form. Peptide text beside a SMILES is read from it. * marks the point of attachment. Biotin = O=C1N[C@H]2[C@H](CS[C@H]2CCCCC(=O)*)N1

Assays:
A. baumannii [1] = type: cell-based
Summary of the method: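 Laboratory strains and 50 clinical isolates of A. baumannii were tested by CLSI broth microdilution, with serially diluted peptide (0.1-64 μg) and about 1×10^5 C.F.U. per well, incubated aerobically overnight at 35±2° C. MIC was read visually. MBC came from subculturing clear wells, as ≥99.9% inoculum reduction.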

human RBC = test: Hemolysis of RBC; type: cell-based
Experimental: Varying amounts of peptide were incubated with the washed RBC for one hour at room temperature. Intact cells were pelleted by gentle centrifugation, and hemolysis of each sample was determined by absorption measurement at 450 nm. A positive control sample consisted of RBC lysed by the addition of 0.1% Triton, for which hemolysis was also determined by absorption measurement at 450 nm. Percentages of lysed RBC incubated with peptide were then calculated by the ratio of absorbances at 450 nm for the sample relative to the absorbance at 450 nm of the positive control sample. The MHC10 value was calculated as the minimum peptide concentration to induce 10% cell lysis.

[2] = Cytotoxicity against Jurkat cells (CellTiter Blue); type: cell-based, human; conditions: human
Experimental: (§1) The cytotoxicities of selected peptides against human T-lymphocytes, in particular Jurkat cells, was determined by growing 100 uL Jurkat cells in RPMI (approx. 5×10^5 cells/ml density) overnight at 37° C. under 5% CO2 atmosphere, in microtiter plate wells, in the presence and absence of peptides. Control reactions either lacked peptide (negative cytotoxicity control), or contained a buffer to completely lyse Jurkat cells (positive cytotoxicity control). The viabilities of cells were then determined by addition of 20 uL CellTiter Blue dye (Promega) to each well, and incubation of cells for a further 3 hrs at 37° C. Fluorescence values were measured for 1 sec at 540 nm/615 nm, and expressed relative to fluorescence values for negative and positive cytotoxicity control samples. Comparison with a fully lysed control allowed the calculation of a percentage killing for each peptide concentration. The MCC10 value was calculated as the minimum peptide concentration required to induce 10% cytotoxicity.

Jurkat cells = test: Cytotoxicity against Jurkat cells (CellTiter Blue); type: cell-based, human
Experimental: as §1

A. baumannii [3] = test: A. baumannii lung infection in mice, cell counts in lungs; type: in vivo, C57B1/6 mice
Experimental: Groups of C57B1/6 mice that have been ear-tagged for identification are used. Freshly-prepared inocula of A. baumannii are prepared from cultures of A. baumannii passaged four times through mice, and cultures are grown with agitation at 37° C. in Nutrient broth to an OD600 value of approximately 0.3 units. Cells are collected by centrifugation at room temperature for 20 mins (5,500 rpm using a GA-10 rotor) and resuspended in 10 ml sterile PBS at room temperature. This wash is repeated once. The cell pellet is then resuspended in 0.5 ml PBS to an approximate concentration of 2.5×10^9 c.f.u./ml. Animals are inoculated intranasally 40 μl inoculum (approximately 1×10^8 c.f.u.) using a sterile 200 μl capacity pipette tip having approximately 3 mm removed from the end. The precise time of inoculation is recorded for each animal. Peptides are administered intravenously e.g., after 3 hr, in 200 μl aliquots of a 200 μM peptide solution in PBS.
At 5.5 hr post-inoculation (taking into account staggered inoculation times), both lung lobes are removed from the animals, homogenised in 0.9 ml PBS and plated on MHB plates at 1×10^−3 dilution, 1×10^−4 dilution and 1×10^−5 dilution in PBS. Following incubation periods sufficient to grow colonies, cells are counted.

[4] = tested on: Escherichia coli strain BL21; type: cell-based; conditions: for % inhibition of bacterial growth by peptide: E. coli BL21
Experimental: (§2) Synthetic peptides were tested for their ability to inhibit bacterial growth in liquid culture. […] 19606, Acinetobacter spp. ATCC 17903, Acinetobacter spp. ATCC 19004, Escherichia coli strain BL21, S. aureus, S. typhimurium strain AroA, P. aeruginosa or P. pneumotropica. After 5-6 hours of shaking at 37° C., growth was measured as absorbance at 595 nm. As a control, cultures were grown in the presence of 0.1% acetonitrile (i.e., the concentration present in 10 μM peptide).

[5] = tested on: A. baumannii ATCC Accession No. 19606; type: cell-based; conditions: A. baumannii ATCC 19606
Experimental: as §2

[6] = tested on: Acinetobacter spp. ATCC 17903; type: cell-based
Experimental: as §2

[7] = tested on: Acinetobacter spp. ATCC 19004; type: cell-based
Experimental: as §2

P. aeruginosa = type: cell-based
Experimental: as §2

S. aureus = type: cell-based
Experimental: as §2

[8] = tested on: S. typhimurium strain AroA; type: cell-based
Experimental: as §2

[9] = tested on: A. baumannii ATCC 19606, Acinetobacter spp. ATCC 17903, Acinetobacter spp. ATCC 19004, E. coli BL21, S. aureus, S. typhimurium AroA, P. aeruginosa, P. …; test: Antibacterial spectrum over the serial dilution panel (Table 6); type: cell-based; conditions: summary of Table 6
Summary of the method: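 Growth inhibition in liquid culture: freshly inoculated strains exposed to roughly 5–10 μM peptide, 5-6 h shaking at 37° C. Absorbance at 595 nm measured growth, with 0.1% acetonitrile vehicle as control.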

With `CC[C@@H](C)[C@@H](NC(=O)[C@@H](CCCNC(=N)N)NC(=O)[C@@H](C)NC(=O)[C@@H](CC(C)C)NC(=O)[C@@H](CCCNC(=N)N)NC(=O)[C@@H](CCCNC(=N)N)NC(=O)CCCC[C@@H]1SC[C@@H]2NC(=O)N[C@@H]21)C(=O)N[C@H](CCCCN)C(=O)N[C@H](CO)C(=O)N[C@H](CC(C)C)C(=O)N[C@H](CC(C)C)C(=O)N[C@H](CCC(N)=O)C(=O)N[C@H](CCCNC(=N)N)C(=O)N[C@H](CS)C(=O)N[C@@H](C(=O)N[C@H](C)C(=O)N[C@H](Cc1ccccc1)C(=O)N[C@H](Cc1ccccc1)C(=O)N[C@H](CO)C(=O)N[C@H](Cc1c[nH]cn1)C(=O)N[C@H](CC(N)=O)C(=O)N[C@H](Cc1ccc(O)cc1)C(=O)N[C@H](CCCNC(=N)N)C(=O)N[C@@H](C(=O)O)C(C)C)C(C)C` [Ac13r] (Biotin-[dR][dR][dL][dA][dR][dI][dK][dS][dL][dL][dQ][dR][dC][dV][dA][dF][dF][dS][dH][dN][dY][dR][dV]-OH; N-terminus and C-terminus assumed) the “MIC (μM) for amidated peptide” value (A. baumannii [1]) was 1.25 to 2.5 µM, the “MIC (μM) for non-amidated Peptide” value (A. baumannii [1]) was 1.25 to 2.5 µM and the MHC10 (human RBC) was roughly 15 µM. It also gave a cytotoxicity at 12.5 μM [2] of 0%, a cytotoxicity at 25 μM [2] of 3% and a cytotoxicity at 50 μM [2] of 39%. For the same compound, the MCC10 (Jurkat cells) was 30 µM, the “trend to reduce A. baumannii infection in the lung” value (A. baumannii [3]) was “strong trend” and the “Cell counts in lungs post-treatment, Mouse 2” value (A. baumannii [3]; as E41, Mouse 2) was 2.6 × 10^5. The “Cell counts in lungs post-treatment, Mouse 3” value (A. baumannii [3]; as E41, Mouse 3) was 9.0 × 10^4 and the “Cell counts in lungs post-treatment, Mouse 1” value (A. baumannii [3]; peptide i.v. after intranasal A. baumannii, lungs at 5.5 hr post-inoculation, Mouse 1) was 1 × 10^4.

With tachyplesin-1 [reference compound] the “inhibition of growth of E. coli” value ([4]; summary of Table 6) was “inhibited growth of E. coli significantly”.

For `CC(C)C[C@H](NC(=O)[C@H](Cc1ccccc1)NC(=O)CNC(=O)[C@H](CO)NC(=O)[C@@H]1CCCN1C(=O)[C@H](Cc1c[nH]c2ccccc12)NC(=O)[C@@H](NC(=O)[C@@H]1CCCN1C(=O)[C@H](CCCNC(=N)N)NC(=O)[C@@H](NC(=O)[C@H](C)NC(=O)[C@H](CS)NC(=O)[C@H](CCCNC(=N)N)NC(=O)[C@H](CO)NC(=O)[C@H](CO)NC(=O)CCCC[C@@H]1SC[C@@H]2NC(=O)N[C@@H]21)C(C)C)C(C)C)C(=O)N[C@@H](CCCNC(=N)N)C(=O)N[C@@H](CCCNC(=N)N)C(=O)N[C@@H](CC(C)C)C(=O)N[C@@H](CO)C(=O)N[C@@H](CC(=O)O)C(=O)N[C@@H](CCCNC(=N)N)C(=O)N[C@@H](CS)C(=O)N[C@@H](CS)C(=O)O` [Ac328] (Biotin-SSRCAVRPVWPSGFLRRLSDRCC-OH; N-terminus and C-terminus assumed), the “MIC (μM) for non-amidated Peptide” value (A. baumannii [1]) was 12.5 µM, the MHC10 (human RBC) was 20 µM and the cytotoxicity at 12.5 μM [2] was 1%. The cytotoxicity at 25 μM [2] was 17%, the cytotoxicity at 50 μM [2] was 32% and the MCC10 (Jurkat cells) was 20 µM.

In the case of `CC(C)C[C@H](NC(=O)CNC(=O)[C@@H]1CCCN1C(=O)[C@H](Cc1c[nH]c2ccccc12)NC(=O)[C@H](CCCCN)NC(=O)[C@H](CCCCN)NC(=O)[C@H](CCCNC(=N)N)NC(=O)[C@H](C)NC(=O)[C@H](CCC(N)=O)NC(=O)[C@@H]1CCCN1C(=O)[C@H](CO)NC(=O)[C@@H](NC(=O)[C@H](CCCCN)NC(=O)[C@H](CC(C)C)NC(=O)[C@H](CCCCN)NC(=O)[C@@H](NC(=O)[C@H](CC(C)C)NC(=O)[C@H](Cc1c[nH]cn1)NC(=O)[C@H](CC(=O)O)NC(=O)CN)C(C)C)[C@@H](C)O)C(=O)NCC(=O)N[C@@H](CC(N)=O)C(=O)N[C@@H](CCC(=O)O)C(=O)O` [Ac99] (H-GDHLVKLKTSPQARKKWPGLGNE-OH; N-terminus and C-terminus assumed), the “% inhibition of bacterial growth by peptide” value (from here on “% inhibition”) ([5]; 12.5 μM peptide) is reported as 9%, the “% inhibition” value ([5]; 15 μM peptide) is reported as 20% and the “% inhibition” value ([5]; 17.5 μM peptide) is reported as 14%. For the same compound, the “% inhibition” value ([5]; 20 μM peptide) was 27%, the “% inhibition” value ([6]; 12.5 μM peptide) was 0% and the “% inhibition” value ([6]; 15 μM peptide) was 1%. The “% inhibition” value ([6]; 17.5 μM peptide) was 1%, the “% inhibition” value ([6]; 20 μM peptide) was 32% and the “% inhibition” value ([7]; 12.5 μM peptide) was 0%. The “% inhibition” value ([7]; 15 μM peptide) was 1%, the “% inhibition” value ([7]; 17.5 μM peptide) was 7% and the “% inhibition” value ([7]; 20 μM peptide) was 92%. The “% inhibition” value ([4]; 12.5 μM peptide) was 16%, the “% inhibition” value ([4]; 15 μM peptide) was 23% and the “% inhibition” value ([4]; 17.5 μM peptide) was 17%. The “% inhibition” value ([4]; 20 μM peptide) was 27%, the “% inhibition” value (P. aeruginosa; 12.5 μM peptide) was 8% and the “% inhibition” value (P. aeruginosa; 15 μM peptide) was 21%. For the same compound, the “% inhibition” value (P. aeruginosa; 17.5 μM peptide) was 0%, the “% inhibition” value (P. aeruginosa; 20 μM peptide) was 0% and the “% inhibition” value (S. aureus; 12.5 μM peptide) was 60%. The “% inhibition” value (S. aureus; 15 μM peptide) was 80%, the “% inhibition” value (S. aureus; 17.5 μM peptide) was 99% and the “% inhibition” value (S. aureus; 20 μM peptide) was 100%. The “% inhibition” value ([8]; 12.5 μM peptide) was 0%, the “% inhibition” value ([8]; 15 μM peptide) was 5% and the “% inhibition” value ([8]; 17.5 μM peptide) was 0%. The “% inhibition” value ([8]; 20 μM peptide) was 4% and the “selectively inhibited growth of Acinetobacter spp. ATCC 19004, and S. aureus” value [9] was “selectively inhibited growth”.

With `CC[C@H](C)[C@H](NC(=O)[C@H](Cc1c[nH]c2ccccc12)NC(=O)[C@H](CCCNC(=N)N)NC(=O)[C@H](CO)NC(=O)[C@H](CCCNC(=N)N)NC(=O)[C@H](CCCNC(=N)N)NC(=O)[C@H](CO)NC(=O)[C@H](CCCNC(=N)N)NC(=O)[C@H](CCCNC(=N)N)NC(=O)[C@H](Cc1ccc(O)cc1)NC(=O)CNC(=O)CCCC[C@@H]1SC[C@@H]2NC(=O)N[C@@H]21)C(=O)N[C@@H](CS)C(=O)N[C@@H](CO)C(=O)N[C@@H](CCSC)C(=O)N[C@@H](C)C(=O)N[C@@H](CCCNC(=N)N)C(=O)N[C@@H](CCCNC(=N)N)C(=O)N[C@@H](CO)C(=O)N[C@@H](CCCNC(=N)N)C(=O)N[C@@H](CCCNC(=N)N)C(=O)N[C@@H](CCCNC(=N)N)C(=O)N[C@@H](CCCNC(=N)N)C(=O)N1CCC[C@H]1C(=O)O` [Ac389] (Biotin-GYRRSRRSRWICSMARRSRRRRP-OH) the “MIC (μM) for non-amidated Peptide” value (A. baumannii [1]) was 12.5 µM, the MHC10 (human RBC) was 50 µM and the cytotoxicity at 12.5 μM [2] was 0%. The cytotoxicity at 25 μM [2] was 34%, the cytotoxicity at 50 μM [2] was 95% and the MCC10 (Jurkat cells) was 15 µM.
